The source of these data is PubChem BioAssay (NCI).

Each structure is given as a SMILES string. Values joined by “and” are separate entries in the source; they are usually repeats but may differ in a detail not shown here. Identical values can stand only once.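 In this assay, cells in 96-well plates receive the compound at five concentrations for 48 hours. Endpoints are linearly interpolated between the surrounding concentrations. Here, GI50 denotes the concentration required for 50% inhibition of growth. TGI: total growth inhibition.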

Common to all, as to test: inhibition of tumour cell growth, NCI panel, 48 h
For test [1], the system named is MOLT-4 leukemia.
Test [2] relates to OVCAR-3 ovarian.
In test [3] the test system is HOP-62 NSCLC.
Test [4] has as its system 786-0 renal.
Test [5] concerns HL-60(TB) leukemia.
The test system of test [6] is CCRF-CEM leukemia.
In test [7] the test system is ACHN renal.
The subject of test [8] is HOP-92 NSCLC.
Test [9] relates to NCI-H226 lung.
Test [10] relates to SF-539 CNS.

With `COc1ccc(C(=O)c2cc3c(OC)c(OC)c(OC)cc3[nH]2)cc1`, the GI50 in test [1] was 3.51 µM; in test [2], 9.07 µM; in test [3] it was 19.6 µM; in test [4], 11.9 µM; in test [5] it was 2.24 µM; in [6], 5.27 µM. In addition, the GI50 in test [7] is 12.8 µM; in test [8], 9.24 µM; in [9], above 100 µM; in test [10] it was 4.76 µM. Besides, the TGI in test [1] was above 100 µM; in [2] it was above 100 µM; in test [3], 80.9 µM; in test [4], above 100 µM; in [5], 61.8 µM; in [6], above 100 µM. The TGI in [7], in test [8], in [9] and in [10] was above 100 µM each time.

As to `C=CC1CC12C(=O)C1OC2(C)C2C(=O)c3c(O)ccc(O)c3C(=O)C12` (stereo not given), the GI50 in test [1] is 0.617 µM; in [2], 1.13 µM; in test [3], 9.66 µM; in test [4], 1.94 µM; in test [5], 1.19 µM; in test [6], 1.3 µM. Moreover, the GI50 was 1.77 µM in test [7], 2.69 µM in test [8], 5.8 µM in test [9] and 4.5 µM in test [10]. The TGI was 17 µM in [1]; 3.83 µM in test [2]; 25 µM in [3]; 4.27 µM in [4]; 3.79 µM in test [5]; 16 µM in test [6]. In addition, the TGI in test [7] came to 4.37 µM; in test [8], 6.59 µM; in test [9], 14.2 µM; in test [10] it was 14.8 µM.

As to `O=c1[nH]cnc2[nH]ncc12`, the GI50 in [1] is 972 µM; in test [2], 269 µM; in [3] it was 353 µM; in test [4], 400 µM; in test [5] it was > 79.9 µM and 108 µM; in test [6] it was 360 µM. The GI50 in test [7] is 193 µM; in test [8] it was 163 µM; in test [9], 878 µM; in test [10], 2010 µM. Besides, the TGI is above 5000 µM in [1]; above 1820 µM in test [2]; above 5000 µM in [3]; above 5000 µM in test [4]; above 3420 µM in [5]; above 5000 µM in test [6]. For the same molecule, the TGI is above 5000 µM in test [7], above 3250 µM in [8], above 5000 µM in [9] and above 5000 µM in test [10].

In the case of `O=C(Nc1ccccc1O)c1ccc(Oc2cccc(C(=O)Nc3ccccc3O)c2)cc1`, the GI50 in test [1] is 0.767 µM; in [2], 3.28 µM; in [3] it was 2.24 µM; in test [4], 2.84 µM; in [5], 1.37 µM; in test [6] it was 0.409 µM. For the same molecule, the GI50 was 2.64 µM in test [7], 1.57 µM in [8], 2.06 µM in test [9] and 1.61 µM in test [10]. Also, the TGI came out at 6.85 µM in test [1]; 9.86 µM in [2]; 12.5 µM in test [3]; 12.2 µM in [4]; 10.4 µM in test [5]; 9.15 µM in test [6]. The TGI is 11.9 µM in test [7], 6.07 µM in [8], 10.8 µM in [9] and 6.3 µM in test [10].

As for `c1ccc2c(c1)[nH]c1cnc3c4cccnc4[nH]c3c12`, the TGI in test [1] stood at 49.3 µM; in test [2], 32.2 µM; in test [3], 96.1 µM; in test [4], 31.7 µM; in test [5], 35.5 µM; in test [6], 54.2 µM. For the same molecule, the TGI in test [7] stood at 23.4 µM; in test [8] it was 60.7 µM; in test [9] it was 64 µM; in test [10], 44.7 µM.

For `O=C1c2c(n(Cc3ccccc3)c(=O)n2Cc2ccccc2)C(=O)N1Cc1ccccc1`, the TGI in test [1], in [2], in [3], in test [4], in test [5] and in test [6] was above 100 µM throughout. The TGI in [7], in [8], in test [9] and in test [10] was above 100 µM in each case.

As to `O=C(O)c1cc(N=Cc2ccccc2O)cc(C(=O)O)c1`, the TGI in test [1], in test [2], in test [3], in test [4], in test [5] and in [6] was above 100 µM in each case. Moreover, the TGI in test [7], in test [8], in [9] and in [10] was above 100 µM each time.

Consider `Fc1ccc(C2SCc3nc4ccccc4n32)cc1` (stereo not given), for which the TGI is above 100 µM in [1]; 77.6 µM in test [2]; above 100 µM in [3]; above 100 µM in test [4]; 71.8 µM in [5]; above 100 µM in test [6]. The TGI in test [7] is above 100 µM; in [8], 62 µM; in test [9] it was 92.4 µM; in test [10] it was above 100 µM.

As to `NS(=O)(=O)c1cccc(N=Cc2c(O)[nH]c3ccccc23)c1`, the GI50 in test [1], in [2], in test [3], in test [4], in test [5] and in [6] was above 25 µM throughout. The GI50 was above 23.1 µM in test [7], above 25 µM in test [8], above 25 µM in test [9] and above 25 µM in [10]. In addition, the TGI in test [1], in test [2], in [3], in [4], in [5] and in [6] was above 25 µM throughout. Besides, the TGI in test [7], in [8], in test [9] and in test [10] was above 25 µM throughout.

`COc1cc(-c2nc3sc4c(c3c(=O)[nH]2)CCCCCC4)cc(OC)c1OC`: the GI50 in [1] was 1.86 µM; in test [2], 0.922 µM; in test [3], 1.36 µM; in test [4], 1.46 µM; in [5], 1.36 µM; in [6] it was 1.28 µM. In addition, the GI50 was 1.79 µM in [7], 0.887 µM in test [8], 3.6 µM in [9] and 0.673 µM in test [10]. In addition, the TGI in test [1] is above 33.2 µM; in [2], 8.94 µM; in test [3] it was above 33.2 µM; in test [4], 23.2 µM; in test [5], 13 µM; in test [6], above 33.2 µM. Moreover, the TGI in test [7] is above 33.2 µM; in [8] it was 9.45 µM; in test [9] it was above 33.2 µM; in [10], 2.08 µM.
